Results: ChEMBL document CHEMBL3585288, “Synthesis, characterization and evaluation of the substituent effect on the amoebicide activity of new hydrazone derivatives” (Medchemcomm, 2014)

test system: Entamoeba histolytica; experiment: Amoebicidal activity against trophozoite stage of Entamoeba histolytica HM-1:IMSS assessed as growth inhibition after 72 hrs by carboxyfluorescein diacetate/propidium iodide staining-based fluorescence microscopic analysis; format: functional, organism-based

| Compound | IC50 [µM] |
| --- | --- |
| C(=N\N=C\c1ccccc1)/c1ccccc1 | 96 |
| O=[N+]([O-])c1ccc(-c2ccc(/C=N/Nc3ccccc3)o2)cc1 | 0.98 |
| O=C(/C(=N/N=C(/C(=O)c1ccccc1)c1ccccc1)c1ccccc1)c1ccccc1 | 18 |
| O=[N+]([O-])c1ccc(-c2ccc(/C=N/N=C/c3ccc(-c4ccc([N+](=O)[O-])cc4)o3)o2)cc1 | 13 |
| C(=N\N(c1ccccc1)c1ccccc1)/c1cccs1 | 7.6 |
| O=[N+]([O-])c1ccc(-c2ccc(/C=N/N(c3ccccc3)c3ccccc3)o2)cc1 | 16 |
| O=[N+]([O-])c1cccc(/C=N/N(c2ccccc2)c2ccccc2)c1 | 19 |
| C(=N\Nc1ccccc1)/c1ccco1 | 120 |
| C(=N\N(c1ccccc1)c1ccccc1)/c1ccccc1 | 78 |
| Cc1ncc([N+](=O)[O-])n1CCO [METRONIDAZOLE] | 6.8 |

test system: Entamoeba histolytica; experiment: Potency index, ratio of metronidazole IC50 to compound IC50 for trophozoite stage of Entamoeba histolytica HM-1:IMSS; format: functional

| Compound | Ratio IC50 |
| --- | --- |
| O=[N+]([O-])c1ccc(-c2ccc(/C=N/Nc3ccccc3)o2)cc1 | 7 |
